The subject of assay [1] is endotoxin-induced shock in dogs. Kind of assay: Endotoxin-induced hypotension in dogs (with nitroglycerin and control dogs). In kind it is in vivo. The note with it: Study 2: Nitroglycerin-treated dogs (n=3). The method, then: Animals: Studies were carried out on 12 conditioned mongrel dogs (9 males and 3 females) weighing 22-32 kg (avg=25.3 kg). Animal care was in accordance with the recommendations of the American Association for Accreditation of Laboratory Animal Care, and met all standards prescribed by the Guide for the Care and Use of Laboratory Animals (Guide for the Care and Use of Laboratory Animals (1978) Dept. of Health, Education and Welfare, Washington, D.C. (Publ. No. 78-23). Animal protocols were approved by The University of Texas Animal Welfare committee. The dogs were fasted overnight prior to the day of experimentation. They were anesthetized with sodium pentobarbital (25 mg/kg i.v.). Dogs were then endotracheally intubated and ventilated with a piston-driven respirator (Harvard instruments) using room air at a tidal volume of 15 ml/kg and at a rate of 12 to 14 breaths per minute, adjusted to achieve a normal arterial pH and pCO2 (Instrumentation Laboratories lL1302 pH/Blood Gas Analyzer). Catheters were placed percutaneously into the femoral and pulmonary arteries; In the latter, a flow-directed thermal-dilation catheter was used (Abbott Critical Care Systems).
Physiologic measurements: Mean SAP and heart rate were continuously monitored (Parametron 7048 Monitoring System, Roche) and stored on a magnetic disk using an analog-to-digital converter (Scientific Solutions, Inc.). Cardiac output (CO) was determined as the mean of six measurements by thermal-dilution. Systemic vascular resistance was calculated as (SAP X80)/CO and expressed as dynes-sec/cm^5 (kg/s·cm^4).
Protocol: After the blood pressure and heart rate stabilized, endotoxin (40 µg/kg, in 10 ml of phosphate-buffered saline (PBS), pH 7.4) was infused i.v. over 2 minutes. This dose of endotoxin typically induces severe and often lethal cardiovascular collapse in the dog. Blood pressure was monitored, and when either SAP fell below 60 mm Hg or a stable nadir in systemic arterial pressure (SAP) was maintained for 10 minutes, L-NMA was administered (20 mg/kg in 5 ml of PBS i.v. over 1 min.). In most experiments, L-arginine (400 mg/kg in 20 ml PBS) was administered ten minutes later by i.v. infusion over 2 minutes. In control experiments, dogs without prior exposure to endotoxin received L-NMA alone. To simulate the hypotension observed in dogs receiving endotoxin, one group of dogs received a continuous i.v. infusion of nitroglycerin (2 mg/ml) at a rate adjusted to maintain the SAP at 60-70 mm Hg. Nitroglycerin-treated dogs then received L-NMA (20 mg/kg) and 20 minutes later L-arginine was administered ([…]).
Statistics: Statistical significance was evaluated using Student's test and either a one-tailed or two-tailed analysis as appropriate for comparisons.

The next assay has as its system pithed rats. Briefly: Blood pressure response to phenylephrine in pithed rats without/with arginase. In kind it is in vivo. The conditions noted are these: for Blood Pressure Increase With Arginase Ave. ± S.D.: after arginase; for difference in pressor response between control and endotoxic animals: phenylephrine 6 µg/Kg. The method, then:
Animals were pithed as described in Example 1. Blood pressure measurements were obtained also as described in Example 1. Arginase was also prepared according to the method described in Example 1.
Both left and right jugular veins were cannulated for drug administration; and left jugular was used for bolus administration of phenylephrine and the right jugular vein was used for continuous infusion of arginase. All animals from both groups (Control and Endotoxin) received phenylephrine in sequential doses of 0.3, 1.0, 2.0, or 6.0 ug/Kg.
Endotoxin (15 mg/kg body weight) was given by intravenous injection 6 hrs before the experiment began; arginase (300 I.U./Min. for 20 min.) was given intravenously to each rat after the "Without Arginase" measurements were made.
For the second, third and fourth rats, the blood pressure increments were 14, 32 and 9 before arginase, respectively, and 9, 20 and 10 after arginase, respectively.

The mark [2] stands for this setting: Study #1: Control Animals, phenylephrine 0.3 µg/Kg.
Setting [3] is: Study #1: Control Animals, phenylephrine 1.0 µg/Kg.
Where [4] appears, read: Study #1: Control Animals, phenylephrine 2.0 µg/Kg.
Where [5] appears, read: Study #1: Control Animals, phenylephrine 6.0 µg/Kg.
The mark [6] stands for this setting: Study #2: Endotoxic Animals, phenylephrine 0.3 µg/Kg.
The mark [7] stands for this setting: Study #2: Endotoxic Animals, phenylephrine 1.0 µg/Kg.
Where [8] appears, read: Study #2: Endotoxic Animals, phenylephrine 2.0 µg/Kg.
Where [9] appears, read: Study #2: Endotoxic Animals, phenylephrine 6.0 µg/Kg.

For the compound `O=[N+]([O-])OCC(CO[N+](=O)[O-])O[N+](=O)[O-]` [Nitroglycerin], the “Cardiac Output” value in assay [1] (means ± S.E., baseline 3.14 ± 0.21) is 2.72 ± 0.27 L/min. Further, in assay [1] (means ± S.E., baseline 143.7 ± 12.1), the “Heart Rate” value was found to be 137.3 ± 5.0 beats/min. The “Systemic Vascular Resistance” value was 1924 ± 132 dynes-sec/cm^5 in assay [1] (means ± S.E., baseline 3294 ± 74) and 1.924 ± 0.132 Kg/s·cm^4 in assay [1] (value in brackets). For the same compound, in assay [1] (means ± S.E., continuous nitroglycerin (2 mg/ml) titrated to SAP 65 mm Hg, then L-NMA 20 mg/kg, then L-arginine, baseline 129.3 ± 10.2), the “Systemic Arterial Pressure” value was 64.7 ± 2.7 mmHg.
`CNC[C@H](O)c1cccc(O)c1` [Phenylephrine, phenylephrine]: the “Blood Pressure Increase Without Arginase Ave. ± S.D.” value in the assay on pithed rats (setting [2]) amounted to 17.8 ± 5.0 mm Hg; in the assay on pithed rats (setting [3]), 31.3 ± 4.0 mm Hg; in the assay on pithed rats (setting [4]) it was 51.0 ± 6.6 mm Hg; with pithed rats (setting [5]), 93.0 ± 10.3 mm Hg; in the assay with pithed rats (setting [6]), 2.2 ± 0.7 mm Hg; in the assay with pithed rats (setting [7]), 7.0 ± 1.1 mm Hg. Besides, the “Blood Pressure Increase Without Arginase Ave. ± S.D.” value in the assay with pithed rats (setting [8]) is reported as 13.6 ± 2.6 mm Hg; with pithed rats (setting [9]), 33.7 ± 9.6 mm Hg. The “Blood Pressure Increase With Arginase Ave. ± S.D.” value in the assay on pithed rats (setting [2]) turned out to be 13.3 ± 2.5 mm Hg; in the assay with pithed rats (setting [3]), 22.5 ± 6.1 mm Hg; with pithed rats (setting [4]), 38.8 ± 9.1 mm Hg; with pithed rats (setting [5]) it was 79.8 ± 13.4 mm Hg; in the assay with pithed rats (setting [6]) it was 2.0 ± 0.6 mm Hg; in the assay on pithed rats (setting [7]), 9.0 ± 1.8 mm Hg. For the same compound, the “Blood Pressure Increase With Arginase Ave. ± S.D.” value is 23.3 ± 5.3 mm Hg in the assay with pithed rats (setting [8]) and 48.5 ± 7.6 mm Hg in the assay on pithed rats (setting [9]). Further, the “difference in pressor response between control and endotoxic animals” value was 31.3 mm Hg with pithed rats (animals given arginase) and 59.3 mm Hg in the assay with pithed rats (animals not given arginase).

Values taken from patent EP0663826B1, “AMINO ACIDS CONTAINING PARENTERAL FORMULATIONS FOR THE TREATMENT OF HYPOTENSION AND RELATED PATHOLOGIES” (BOARD OF REGENTS THE UNIVERSITY OF TEXAS SYSTEM, priority 1991, dated 1993).
